{"source": "ChEMBL document CHEMBL1140323", "about": "“Biaryl ureas as potent and orally efficacious melanin concentrating hormone receptor 1 antagonists for the treatment of obesity” (J Med Chem, 2005)", "key": {"[1]": {"target": "T1, Melanin-concentrating hormone receptor 1 (Homo sapiens, UniProt Q99705)", "T1 sequence (Q99705 whole entry)": "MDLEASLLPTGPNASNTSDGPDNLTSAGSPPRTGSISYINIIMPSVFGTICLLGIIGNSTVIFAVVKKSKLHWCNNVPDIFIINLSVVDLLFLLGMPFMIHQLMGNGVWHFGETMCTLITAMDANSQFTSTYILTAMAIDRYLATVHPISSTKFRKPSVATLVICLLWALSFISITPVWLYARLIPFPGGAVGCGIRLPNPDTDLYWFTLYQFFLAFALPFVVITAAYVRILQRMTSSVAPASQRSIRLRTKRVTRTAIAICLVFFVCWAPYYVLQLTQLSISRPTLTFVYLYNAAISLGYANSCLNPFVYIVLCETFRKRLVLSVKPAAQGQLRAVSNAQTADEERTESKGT", "test": "Inhibition of human melanin concentrating hormone receptor 1"}, "[2]": {"test": "Area under curve(0-6 h) for the compound administered orally at 10 mg/kg in rat", "assay_type": "ADME, organism-based", "parameters": "time < 6 hr, dose 10 mg/kg, route oral", "settings": "in vivo, po"}, "[3]": {"target": "T1, Melanin-concentrating hormone receptor 1", "test": "Inhibition of calcium influx into cells expressing hMCH-R1 in FLIPR assay", "assay_type": "functional"}, "[4]": {"target": "Sodium-dependent serotonin transporter (Rattus norvegicus, UniProt P31652)", "sequence (P31652 whole entry)": "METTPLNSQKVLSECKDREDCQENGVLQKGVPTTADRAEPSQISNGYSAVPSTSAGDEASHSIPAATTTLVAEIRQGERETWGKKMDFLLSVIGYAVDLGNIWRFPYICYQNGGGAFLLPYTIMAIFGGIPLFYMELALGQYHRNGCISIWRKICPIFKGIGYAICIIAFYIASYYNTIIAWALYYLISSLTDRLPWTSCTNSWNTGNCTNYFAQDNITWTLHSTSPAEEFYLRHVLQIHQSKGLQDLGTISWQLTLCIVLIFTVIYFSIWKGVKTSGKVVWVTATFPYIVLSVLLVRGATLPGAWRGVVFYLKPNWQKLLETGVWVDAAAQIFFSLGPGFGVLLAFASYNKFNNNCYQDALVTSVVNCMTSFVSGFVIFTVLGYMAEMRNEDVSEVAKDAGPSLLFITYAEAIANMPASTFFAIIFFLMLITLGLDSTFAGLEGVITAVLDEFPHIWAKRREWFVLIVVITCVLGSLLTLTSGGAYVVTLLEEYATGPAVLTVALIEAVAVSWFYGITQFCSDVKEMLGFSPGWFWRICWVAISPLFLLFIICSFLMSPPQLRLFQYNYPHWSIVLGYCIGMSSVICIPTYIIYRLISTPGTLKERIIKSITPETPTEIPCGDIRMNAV", "test": "Inhibition of 5-hydroxytryptamine reuptake by serotonin transporter"}, "[5]": {"system": "Rattus norvegicus", "test": "Ability (3 mg/kg) required to suppression the body weight gain relative to control", "assay_type": "functional"}, "[6]": {"system": "Rattus norvegicus", "test": "Ability (10 mg/kg) required to produce a dose dependent decrease in food intake", "assay_type": "functional"}, "[7]": {"system": "Mus musculus", "test": "Oral administration (30 mg/kg) required to reduced food intake relative to control at 4 hr post dose", "assay_type": "functional"}, "[8]": {"system": "Rattus norvegicus", "test": "Ability (10 mg/kg) required to suppression the body weight gain relative to control", "assay_type": "functional"}, "[9]": {"system": "Mus musculus", "test": "Oral administration (30 mg/kg) required to reduced food intake relative to control at 6 hr post dose", "assay_type": "functional"}, "[10]": {"system": "Mus musculus", "test": "Oral administration (30 mg/kg) required to reduced food intake relative to control at 24 hr post dose", "assay_type": "functional"}, "[11]": {"system": "Rattus norvegicus", "test": "Ability (3 mg/kg) required to produce a dose dependent decrease in food intake", "assay_type": "functional"}}, "note": "pKi: −log10 of the molar value."}
{"smiles": "N#Cc1cccc(-c2ccc(N(CCN3CC[C@H](O)C3)C(=O)Nc3ccc(C(F)(F)F)c(F)c3)cc2)c1", "values": [{"measurement": "pKi", "setting": "[1]", "value": 8.14}, {"measurement": "AUC(0-t) at 6 h", "setting": "[2]", "value": 1450, "unit": "ng·h/mL"}]}
{"smiles": "CN(C)CCN(C(=O)Nc1ccc(F)c(Cl)c1)c1ccc(-c2cccc(C#N)c2)cc1", "values": [{"measurement": "pKi", "setting": "[1]", "value": 8.48}, {"measurement": "AUC(0-t) at 6 h", "setting": "[2]", "value": 1950, "unit": "ng·h/mL"}, {"measurement": "Kb", "setting": "[3]", "value": 3.1, "unit": "nM"}, {"measurement": "pKi", "setting": "[4]", "value": 5.97}]}
{"smiles": "CNCCN(C(=O)Nc1ccc(F)c(Cl)c1)c1ccc(-c2cccc(C#N)c2)cc1", "values": [{"measurement": "pKi", "setting": "[1]", "value": 8.22}, {"measurement": "Kb", "setting": "[3]", "value": 6.2, "unit": "nM"}]}
{"smiles": "N#Cc1cccc(-c2ccc(N(CCN3CCCC3)C(=O)Nc3ccc(C(F)(F)F)c(F)c3)cc2)c1", "values": [{"measurement": "AUC(0-t) at 6 h", "setting": "[2]", "value": 967, "unit": "ng·h/mL"}]}
{"smiles": "CN1CCN(CCN(C(=O)Nc2ccc(C(F)(F)F)c(F)c2)c2ccc(-c3cccc(C#N)c3)cc2)CC1", "values": [{"measurement": "pKi", "setting": "[1]", "value": 8.09}, {"measurement": "AUC(0-t) at 6 h", "setting": "[2]", "value": 542, "unit": "ng·h/mL"}, {"measurement": "pKi", "setting": "[4]", "value": "< 6.00"}]}
{"smiles": "CN(C)CCN(C(=O)Nc1cc(Cl)cc(Cl)c1)c1ccc(-c2cccc(C#N)c2)cc1", "values": [{"measurement": "pKi", "setting": "[1]", "value": 7.72}]}
{"smiles": "N#Cc1cccc(-c2ccc(N(CCN3CC[C@@H](O)C3)C(=O)Nc3ccc(F)c(Cl)c3)cc2)c1", "values": [{"measurement": "pKi", "setting": "[1]", "value": 8.15}, {"measurement": "AUC(0-t) at 6 h", "setting": "[2]", "value": 1080, "unit": "ng·h/mL"}]}
{"smiles": "N#Cc1cccc(-c2ccc(N(CCN3CC[C@@H](O)C3)C(=O)Nc3cc(Cl)cc(Cl)c3)cc2)c1", "values": [{"measurement": "pKi", "setting": "[1]", "value": 7.96}, {"measurement": "AUC(0-t) at 6 h", "setting": "[2]", "value": 1850, "unit": "ng·h/mL"}]}
{"smiles": "CN(C)CCN(C(=O)Nc1ccc(C(F)(F)F)c(F)c1)c1ccc(-c2cccc(C#N)c2)cc1", "values": [{"measurement": "pKi", "setting": "[1]", "value": 8.22}, {"measurement": "AUC(0-t) at 6 h", "setting": "[2]", "value": 4800, "unit": "ng·h/mL"}]}
{"smiles": "N#Cc1cccc(-c2ccc(N(CCN3CC[C@@H](O)C3)C(=O)Nc3ccc(C(F)(F)F)c(F)c3)cc2)c1", "values": [{"measurement": "Body weight gain", "setting": "[5]", "value": 1.2, "unit": "g"}, {"measurement": "Food intake", "setting": "[6]", "value": 13.2, "unit": "%"}, {"measurement": "Food intake", "setting": "[7]", "value": 16, "unit": "%"}, {"measurement": "pKi", "setting": "[1]", "value": 8.05}, {"measurement": "AUC(0-t) at 6 h", "setting": "[2]", "value": 5470, "unit": "ng·h/mL"}, {"measurement": "Kb", "setting": "[3]", "value": 2, "unit": "nM"}, {"measurement": "Body weight gain", "setting": "[8]", "value": 2.2, "unit": "g"}, {"measurement": "Food intake", "setting": "[9]", "value": 17, "unit": "%"}, {"measurement": "Food intake", "setting": "[10]", "value": 14, "unit": "%"}, {"measurement": "Food intake", "setting": "[11]", "value": 16.9, "unit": "%"}]}
{"smiles": "N#Cc1cccc(-c2ccc(N(CCN3CC[C@@H](O)C3)C(=O)Nc3ccc(F)c(C(F)(F)F)c3)cc2)c1", "values": [{"measurement": "pKi", "setting": "[1]", "value": 8.74}, {"measurement": "AUC(0-t) at 6 h", "setting": "[2]", "value": 2790, "unit": "ng·h/mL"}, {"measurement": "Kb", "setting": "[3]", "value": 8, "unit": "nM"}]}
{"smiles": "CC(C)C(=O)N1CCC(N(C(=O)Nc2ccc(F)c(C(F)(F)F)c2)c2ccc(-c3cccc(C#N)c3)cc2)CC1", "values": [{"measurement": "pKi", "setting": "[1]", "value": 6.43}]}
{"smiles": "CCS(=O)(=O)N1CCC(N(C(=O)Nc2ccc(F)c(C(F)(F)F)c2)c2ccc(-c3cccc(C#N)c3)cc2)CC1", "values": [{"measurement": "pKi", "setting": "[1]", "value": 6.78}]}
